Results taken from PubChem BioAssay AID1259332 (Broad Institute, 2017).
The source made the active and inactive calls. No rule for the calls is given here.

What follows are compounds tested on B cell line, CD40 signaling inhibition reporter (assay: inhibitors of CD40 signaling, dose response, B cell lineage (AID 1259332);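 also: cells stimulated with CD40 ligand tCD40L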).
In the case of `N#Cc1c(Br)n(C2OC(CO)C(O)C2O)c2ncnc(N)c12` (stereo unspecified), the AC50 is reported as 1.74 µM.
`CC1CC(C)C(=O)C(C(CC2CC(=O)NC(=O)C2)OC(=O)CC(=O)c2ccccc2)C1` (stereo unspecified) gave an AC50 of 3.18 µM.
`C[C@@H]1CN([C@H](C)CO)C(=O)c2c(c3ccccc3n2C)-c2ccccc2CO[C@H]1CN(C)C(=O)Nc1cccc(Cl)c1Cl` showed an AC50 of 7.74 µM.
`CC(OC(=O)c1cc(Br)ccc1O)C(=O)Nc1ccc(S(=O)(=O)N2CCCC2)cc1` (stereo unspecified) showed an AC50 of 11 µM.
In the case of `COc1cccc(S(=O)(=O)N(C)C[C@@H]2OCc3ccccc3-c3c(n(C)c4ccccc34)C(=O)N([C@H](C)CO)C[C@H]2C)c1`, the AC50 is reported as > 20 µM (inactive).
`N#C[C@H]1[C@H](c2ccc(C#Cc3ccc(F)cc3)cc2)[C@@H](CO)N1C(=O)C1CCC1` was tested, and the AC50 was 7.7 µM.
Work on `C[C@@H]1CN([C@@H](C)CO)C(=O)c2c(c3ccccc3n2C)-c2ccccc2CO[C@@H]1CN(C)Cc1cccc(C(F)(F)F)c1` yielded an AC50 of 7.08 µM.
`CNC(=S)NN=C(C)CCCC(C)=NNC(=S)NC` was tested, and the AC50 was 1.26 µM.
`O=C(C1CCOCC1)N1CC(=O)N2[C@H](C1)[C@H](c1ccc(C#CCc3ccccc3)cc1)[C@@H]2CO` showed an AC50 of 1.86 µM.
`CC1Cc2ccccc2N1c1ncnc(N)c1[N+](=O)[O-]` (stereo unspecified) showed an AC50 of 7.92 µM.
Work on `CC(=O)OC(C)(C)/C=C/C(=O)C(C)(O)C1C(O)CC2(C)C3CC=C4C(CC(O)C(=O)C4(C)C)C3(C)C(=O)CC12C` (stereo unspecified) yielded an AC50 of 0.124 µM.
In the case of `CCCCCN1C=CC(=C2C(=O)c3ccccc3C2=O)C=C1`, the AC50 is reported as 0.127 µM.
`Cc1[nH]c2ccccc2c1C(c1ccccn1)N1CCC(C(N)=O)CC1` (stereo unspecified) showed an AC50 of 9.34 µM.
With `COc1ccc2c3c([nH]c2c1)[C@H](CO)N(C(=O)Nc1cccc(F)c1)CC31CCN(S(=O)(=O)c2cccc(C)c2)CC1` the AC50 was > 20 µM (inactive).
`CN1C(=O)/C(=N\OC(=O)c2cccc3ccccc23)c2ccccc21` was tested, and the AC50 was 1.21 µM.
With `CC(C)[C@H](CO)Nc1nc(Nc2cccc(Cl)c2)c2ncn(C(C)C)c2n1` the AC50 was 4.67 µM.
`COc1ccc(-c2ccc([C@H]3[C@@H](C#N)N(C(=O)c4cccc(F)c4)[C@H]3CO)cc2)cc1` was tested, and the AC50 was > 22 µM (inactive).
Compound `Clc1ccc(COC(Cn2ccnc2)c2ccc(Cl)cc2Cl)c(Cl)c1` (stereo unspecified) has an AC50 of 5.18 µM.
With `CCOC(=O)c1cc2c(ccn2C)n1Cc1ccc(C#N)cc1` the AC50 was > 20 µM (inactive).
With `Cn1cnc(CCNC(=O)C[C@@H]2CC[C@@H]3[C@H](COC[C@@H](O)CN3C(=O)Nc3ccc(C(F)(F)F)cc3)O2)c1` the AC50 was 8.76 µM.
Compound `O=c1cc(-c2ccc(O)cc2)oc2ccc3ccccc3c12` has an AC50 of 2.2 µM.
`COc1ccc(/C=N/Nc2ncccc2[N+](=O)[O-])c(OC)c1` gave an AC50 of 4.23 µM.
With `COc1ccc(S(=O)(=O)Nc2ccc3c(c2)C(=O)N([C@H](C)CO)C[C@@H](C)[C@@H](CN(C)Cc2ccc(C(F)(F)F)cc2)OCCCC[C@H](C)O3)cc1` the AC50 was 6.77 µM.
Compound `CC1=CC2OC3CC4OC(=O)C=CC=CC(C(C)O)OCC(O)C5(C)OC5C(=O)OCC2(CC1O)C4(C)C31CO1` (stereo unspecified) has an AC50 of 0.0375 µM.
`O=[N+]([O-])c1ccc(N2CCOCC2)c2c1no[n+]2[O-]` showed an AC50 of 1.76 µM.
`Cc1cc(C)cc(N2C(=O)CC(Sc3nnnn3-c3ccccc3)C2=O)c1` (stereo unspecified) was tested, and the AC50 was 0.675 µM.
With `C=C1CC(Cn2cc(Br)c(=O)[nH]c2=O)(c2ccc(-c3ccccc3)cc2)OC1=O` (stereo unspecified) the AC50 was 1.07 µM.
With `N#Cc1cccc(-c2ccc([C@@H]3[C@@H]4CN(S(=O)(=O)c5ccc(-c6ccccc6)cc5)C[C@H]3N4)cc2)c1` the AC50 was > 20 µM (inactive).
For `N#CC(C#N)=NNc1cccc(Cl)c1`, the AC50 was 6.54 µM.
With `C[C@@H]1CN([C@@H](C)CO)C(=O)c2c(c3ccccc3n2C)-c2ccccc2CO[C@H]1CN(C)Cc1ccccc1` the AC50 was 8.22 µM.
For `c1ccc(-c2ccc(-c3ccccn3)nn2)nc1`, the AC50 was 7.89 µM.
Work on `CC(C)(C)CC(C)(C)c1ccc(O)c(Cc2ccc(Cl)cc2Cl)c1` yielded an AC50 of 7.11 µM.
For `O=C(C1CCC1)N1CCc2cc(S(=O)(=O)N3CCCCC3)ccc21`, the AC50 was > 20 µM (inactive).
For `Cc1ccccc1-c1ccc2c(c1)O[C@@H](CN(C)C(=O)Nc1ccc(C(F)(F)F)cc1)[C@@H](C)CN([C@@H](C)CO)S2(=O)=O`, the AC50 was 10.5 µM.
In the case of `COc1cc(/C=N/n2cnnc2)ccc1OC(=O)c1ccncc1`, the AC50 is reported as 3.6 µM.
Compound `COc1cc(C(=O)CCN2CCC(c3ccccc3)C2)cc(OC)c1OC` (stereo unspecified) has an AC50 of 5.51 µM.
`C[C@H]1CN([C@@H](C)CO)C(=O)Cc2cc(NC(=O)Cc3cn(C)c4ccccc34)ccc2O[C@H]1CN(C)Cc1ccc(C(F)(F)F)cc1` was tested, and the AC50 was > 20 µM (inactive).
`N#Cc1cccc(-c2ccc(C3[C@@H]4CN(C(=O)Nc5ccc(C(F)(F)F)cc5)C[C@H]3N4)cc2)c1` (stereo partly specified) was tested, and the AC50 was 8.9 µM.
`O=C1CC(=O)OC(c2ccc([N+](=O)[O-])cc2)O1` was tested, and the AC50 was 0.629 µM.
Work on `CC(C)NC(=O)N1Cc2cc(C(=O)NC3Cc4ccccc4C3)nc(-c3cccc(-c4cccnc4)c3)c2[C@@H]1CCO` yielded an AC50 of 10.6 µM.
In the case of `Cn1c(CO)nc2cc(N)ccc21`, the AC50 is reported as > 20 µM (inactive).
In the case of `C[C@H]1CN([C@@H](C)CO)C(=O)Cc2cc(NS(=O)(=O)c3cccs3)ccc2O[C@@H]1CN(C)Cc1ccc(Cl)c(Cl)c1`, the AC50 is reported as 5.83 µM.
In the case of `O=C1c2ccccc2C(=O)C1c1ccc2ccccc2n1`, the AC50 is reported as 6.15 µM.
`C[C@H](CO)N1C[C@H](C)[C@H](CN(C)S(=O)(=O)c2ccc(Cl)cc2)Oc2c(NC(=O)Nc3ccc(F)cc3)cccc2C1=O` gave an AC50 of 6.47 µM.
`O=C(Nc1ccc2c(c1)OCCO2)C1CCCC1` gave an AC50 of 5.46 µM.
With `O=C(C[C@@H]1C[C@H]2c3cc(NC(=O)Nc4ccc(C(F)(F)F)cc4)ccc3O[C@H]2[C@H](CO)O1)NCc1cc(F)ccc1F` the AC50 was > 20 µM (inactive).
With `CN(C)c1ccc(C=c2c3cc(O)ccc3n3c2cc(-c2ccccc2)[n+]3C)cc1` the AC50 was 3.43 µM.
`COC(=O)C12OCC34C(CC5C(C)=C(O)C(=O)CC5(C)C3C(O)C1O)OC(=O)C(OC(=O)C=C(C)C)C24` (stereo unspecified) gave an AC50 of 0.479 µM.
With `CCC(=O)NC(c1ccccc1OC)c1ccc2cccnc2c1O` (stereo unspecified) the AC50 was 8.63 µM.
`C[C@H](CO)N1C[C@H](C)[C@@H](CN(C)Cc2cccc(C(F)(F)F)c2)OCc2ccccc2-c2c(n(C)c3ccccc23)C1=O` was tested, and the AC50 was > 20 µM (inactive).
`N#C[C@@H]1[C@@H](c2ccc(C#CC3CCCCC3)cc2)[C@H](CO)N1C(=O)Nc1ccc(F)cc1` showed an AC50 of 6.51 µM.
`COc1ccc(C=Cc2ccc3ccccc3n2)c(OC)c1` was tested, and the AC50 was 11.3 µM.
With `CC(C)CCCCCCCCCCCCC(=O)NCC(=O)NC1C(O)C(O)C(Nc2ncnc3nc[nH]c23)OC1C(O)CO` (stereo unspecified) the AC50 was 0.0128 µM.
`CNc1c2cccc(C)c2nc2c(C(=O)NCCN(C)C)cccc12` was tested, and the AC50 was 0.266 µM.
In the case of `COC(=O)c1nn(-c2ccc(-c3ccccc3)cc2)cc1O`, the AC50 is reported as 8.42 µM.
`COc1ccc2c(c1)c1ncn(Cc3ccccn3)c(=O)c1n2C` was tested, and the AC50 was > 20 µM (inactive).
`O=C1CC(c2ccc3c(c2)OCO3)Sc2nc3ccccc3n21` (stereo unspecified) was tested, and the AC50 was 8.89 µM.
In the case of `c1ccc(-c2nc(-c3ccccn3)no2)cc1`, the AC50 is reported as 3.98 µM.
For `CCC(C)[C@H]1O[C@]2(CC[C@@H]1C)C[C@@H]1C[C@@H](C/C=C(\C)[C@@H](OC3C[C@H](OC)C(O[C@H]4C[C@H](OC)[C@@H](O)[C@H](C)O4)[C@H](C)O3)[C@@H](C)/C=C/C=C3\CO[C@@H]4[C@H](O)C(C)=C[C@@H](C(=O)O1)[C@]34O)O2` (stereo partly specified), the AC50 was > 20 µM (inactive).
In the case of `COc1ccc(S(=O)(=O)Nc2ccc3c(c2)C(=O)N([C@H](C)CO)C[C@@H](C)[C@@H](CN(C)Cc2ccc(C(F)(F)F)cc2)OCCCC[C@@H](C)O3)cc1`, the AC50 is reported as 8.69 µM.
`Cc1csc(NC(=O)c2ccc(N3CCCC3=O)cc2)n1` showed an AC50 of 4.3 µM.
With `COC(=O)C1=C(C(=O)OC)C(C(=O)OC)C(C(=O)OC)C(C(=O)OC)(C(=O)OC)C(C(=O)OC)=C1C(=O)OC` (stereo unspecified) the AC50 was 3.44 µM.
Compound `CC(C)c1c(O)ccc2c1CCC1C(C)(C)CCC[C@]21C` (stereo partly specified) has an AC50 of 5.44 µM.
Work on `O=C(C1CCOCC1)N1CC(=O)N2[C@H](C1)[C@@H](c1ccc(C#CCc3ccccc3)cc1)[C@@H]2CO` yielded an AC50 of 5.95 µM.
`COC(=O)C[C@](O)(CCCC(C)(C)O)C(=O)O[C@@H]1C(OC)=C[C@]23CCCN2CCc2cc4c(cc2[C@H]13)OCO4` was tested, and the AC50 was < 0.0046 µM.
`O=S(c1ccccc1O)S(=O)c1ccccc1O` (stereo unspecified) showed an AC50 of 4.55 µM.
In the case of `CCN1C(=O)C(CC(=O)Nc2ccc(F)cc2)N(Cc2ccco2)C1=S` (stereo unspecified), the AC50 is reported as 5.03 µM.
Compound `O=C1CCCCC1Sc1nnc(-c2ccc3c(c2)OCO3)o1` (stereo unspecified) has an AC50 of 0.951 µM.
`COc1cc(C(C)C)c2c(c1)S(=O)(=O)N(COc1cc(=O)n3cccc(OCCN4CCCCC4)c3n1)C2=O` showed an AC50 of 2.64 µM.
Compound `C[C@H](CO)N1C[C@H](C)[C@@H](CN(C)Cc2ccc(Oc3ccccc3)cc2)Oc2c(NC(=O)CCC(F)(F)F)cccc2C1=O` has an AC50 of 8.77 µM.
`COc1ccc(CC2C(=O)NC(C)C(=O)N(C)C3Cc4ccc(cc4)Oc4cc(ccc4O)CC(C(=O)NC(C)C(=O)NC(C)C(=O)N2C)N(C)C3=O)cc1` (stereo unspecified) was tested, and the AC50 was 0.00631 µM.
Compound `N#C[C@H]1[C@H](c2ccc(C#Cc3ccccc3F)cc2)[C@@H](CO)N1C(=O)c1cccnc1` has an AC50 of 2.93 µM.
In the case of `CC(=O)NCCCC(=O)NC(CCC(=O)OCc1ccccc1)C(=O)OCc1ccccc1` (stereo unspecified), the AC50 is reported as > 20 µM (inactive).
In the case of `Cc1cnc(NC(=O)c2ccc(OCC3CCCO3)cc2)s1` (stereo unspecified), the AC50 is reported as 3.03 µM.
Work on `CC1CC(C)(C)Nc2ccc(OC(=O)c3ccco3)cc21` (stereo unspecified) yielded an AC50 of 3.23 µM.
`CC12CCC3C(CCC4(O)CC(O)CCC34C=O)C1(O)CCC2C1=CC(=O)OC1` (stereo unspecified) was tested, and the AC50 was 3.86 µM.
In the case of `NC(=NCCCCCCN=C(N)/N=C(\N)Nc1ccc(Cl)cc1)/N=C(\N)Nc1ccc(Cl)cc1`, the AC50 is reported as > 20 µM (inactive).
`C[C@@H]1CN([C@H](C)CO)C(=O)c2c(c3ccccc3n2C)-c2ccccc2CO[C@@H]1CN(C)C(=O)c1cc(Cl)cc(Cl)c1` showed an AC50 of 8.65 µM.
Work on `CCCn1c(NC(=O)c2cccc(S(=O)(=O)N3CCCC3)c2)nc2ccccc21` yielded an AC50 of 2.02 µM.
Compound `c1ccc(OCCSc2nnc3sc4ccccc4n23)cc1` has an AC50 of 4.7 µM.
For `C[n+]1c(-c2ccccc2)cc2c(=Cc3ccc([N+](=O)[O-])cc3)c3ccccc3n21`, the AC50 was 3.93 µM.
`O=C(C#Cc1ccccc1)c1ccccc1` was tested, and the AC50 was 6.37 µM.
With `CC(=O)OCC(=O)C1(O)CCC2C3CCC4=CC(=O)CCC4(C)C3(Cl)C(O)CC21C` (stereo unspecified) the AC50 was > 20 µM (inactive).
With `CCOc1ncccc1C(=O)OC(C)C(=O)Nc1ccc(Cl)cn1` (stereo unspecified) the AC50 was 10.1 µM.
For `O=C(c1nnsc1S(=O)(=O)c1ccc(Cl)cc1)N1CCOCC1`, the AC50 was 2.31 µM.
`O=C(Nc1cccc(N2C(=O)C=CC2=O)c1)c1cccs1` showed an AC50 of 1.68 µM.
Work on `O=C1NC2C(=CC(O)C(O)C2O)c2cc3c(c(O)c21)OCO3` (stereo unspecified) yielded an AC50 of 0.0711 µM.
With `CS(=O)(=O)c1ccc(C(=O)OCC(=O)NC(=O)C2CCCCC2)cc1[N+](=O)[O-]` the AC50 was > 20 µM (inactive).
With `COCC(C)n1c(C)cc(C(=O)COC(=O)c2cccn2C)c1C` (stereo unspecified) the AC50 was 3.06 µM.
`Cc1cccc(-c2ccc(C3[C@@H]4CN(C(=O)Nc5ccc(C(F)(F)F)cc5)C[C@H]3N4)cc2)c1` (stereo partly specified) gave an AC50 of 7.37 µM.
`O=C(Nc1ccccn1)c1ccc(-c2ccccc2)cc1` gave an AC50 of 2.35 µM.
